Assay results as given in patent US20260325481A1, “THERAPY SELECTION AND TREATMENT OF NEURODEGENERATIVE DISORDERS” (Anavex Life Sciences Corp., priority 2022, published 2026).
Where two headings read alike, the source gives them in different places.

Test system: Cluster 1 (213 genes)
Assay: RNAseq whole blood transcriptomics, WGCNA Cluster 1 and pathway analysis
Set-up: species or system human
Description: In order to gain insights into ANAVEX 2-73 response pathways, during the Phase 2 study, patients' DNA and RNA sequencing were analyzed. Transcriptomic samples of 65 patients enrolled in either High Dose or Mid Dose arms were collected at baseline and at the end of treatment (Week 14). The expression of 14,150 genes was measured. No transformation was applied to the TPM values. Values associated with a with RIN s 4.0 were discarded. The actual dose of ANAVEX 2-73 (blarcamesine) that was given to each patient during the trial was assessed and integrated into the database. To characterize the gene dysregulations, a pathway database was built using an aggregation of public databases including KEGG, Panther, Allen, Brain Atlas, Gene Ontology, and Reactome.
The genes were clustered together using WGCNA, starting from their correlation of TPM expression values across samples. Seventeen clusters with size ranging from 13 to 11,190 genes were obtained through this gene clusterisation. The TPM expression values of genes in clusters were then aggregated in a single “eigengene” for each cluster. This eigengene served as a representant of the overall dysregulation of the cluster. Secondly, a cluster filtering was performed, wherein patients' arm and dose information were taken into account based on mixed effect models. For each cluster, the eigengene was used as target variable of a linear mixed effect model with 3 covariates: ActualDose, Patient, and timepoint. For each cluster, the contrast ActualDose, i.e. treated vs placebo were evaluated across all timepoints. P-values were obtained with Dunnett's test. Regardless of the cluster and pathway, pathways with less than 4 genes in a cluster were removed, to compensate for the large variability of cluster size and corresponding variability of number of pathways identified in each clusters. The ratio between cluster size and number of pathways was calculated, and top 2 clusters were retained for further Analysis. Cluster 1 contained 213 genes (n1=213) and 37 pathways, and Cluster 2 contained 962 genes (n2=962) and 317 pathways. […] Thirdly, the two retained clusters were characterized and underwent pathway analysis. The characterization and analysis were applied to all the genes of the cluster (whole cluster), and to the genes of the clusters that are known to have biological interactions (reduced cluster). In the whole cluster analysis, overrepresented pathways were identified using EnrichR package with the parameters of Fisher's adjusted p-value p<0.05 (Benjamini-Hochberg adjustment for multiple testing) and minimum pathway size 20. In the reduced cluster analysis, genes that have no interaction with any other genes of the cluster were discarded, resulting in a reduced cluster. Pathway analysis was performed on these reduced clusters. False Discovery Rate with adjustment for multiple testing (Benjamini-Hochberg procedure) was used to characterize pathways' over-representation. Known interactions between the genes of the cluster were assessed using STRING database with the parameters of Edge score >0.150, and no text mining edges. Known interactions were obtained from public databases, such as KEGG, Panther, Allen, Brain Atlas, Gene Ontology, and Reactome.
Whole Blood Transcriptomics Analysis (RNAseq) of patients with Parkinson's disease with dementia (PDD) was performed for the ANAVEX®2-73-PDD-001 study (FIG. 1) at two timepoints: Baseline and Week 14 (end of trial). All available RNA samples with […] (RNA integrity number, using 130 samples) were analyzed. The expression of 14,150 genes at these two timepoints were analyzed from both placebo and ANAVEX® 2-73 treated patients.
The above method was performed as illustrated in FIG. 2B. […] Then, the cluster's eigengene3 (one of a set of a genes matrix that tabulates the mRNA or gene expression of the genes across the sample) was used as summary of expression level of the cluster. […]

**Q.** Which results are given for `CN(C)CC1CCOC1(c1ccccc1)c1ccccc1.Cl` (centres unmarked) [ANAVEX2-73, tetrahydro-N,N-dimethyl-2,2-diphenyl-3-furanmethanamine hydrochloride]?
**A.** Overlap: 13/273; Number of pathways significantly overrepresented in first cluster (among its 37 pathways): 10 pathways; Overlap (genes of pathway in Cluster 1/genes in pathway, KEGG 2021, Alzheimer disease): 15/369; Overlap (genes of pathway in Cluster 1/genes in pathway, KEGG 2021, Amyotrophic lateral sclerosis): 14/364; Overlap (genes of pathway in Cluster 1/genes in pathway, KEGG 2021, Diabetic cardiomyopathy): 9/203; Overlap (genes of pathway in Cluster 1/genes in pathway, KEGG 2021, Huntington disease): 13/306; Overlap (genes of pathway in Cluster 1/genes in pathway, KEGG 2021, Non-alcoholic fatty liver disease): 8/155; Overlap (genes of pathway in Cluster 1/genes in pathway, KEGG 2021, Oxidative phosphorylation): 8/133; Overlap (genes of pathway in Cluster 1/genes in pathway, KEGG 2021, Parkinson disease): 12/249; Overlap (genes of pathway in Cluster 1/genes in pathway, KEGG 2021, Pathways of neurodegeneration): 15/475; Overlap (genes of pathway in Cluster 1/genes in pathway, KEGG 2021, Proteasome): 4/46
